Measurements reported in ChEMBL document CHEMBL1132537, “A series of 6- and 7-piperazinyl- and -piperidinylmethylbenzoxazinones with dopamine D4 antagonist activity: discovery of a potential atypical antipsychotic agent” (J Med Chem, 1999).

Tests used:
[1] = tested on: Rattus norvegicus; assay: Effect on Dopamine synthesis in rat Hippocampus(HI), measured as accumulation of DOPA(L-3,4-dihydroxyphenylalanine) at a peroral dose of 30 mg/kg; format: functional; conditions: route oral
[2] = tested on: Rattus norvegicus; assay: Effect on Dopamine synthesis in rat Striatum(ST), measured as accumulation of DOPA(L-3,4-dihydroxyphenylalanine) at a peroral dose of 30 mg/kg; format: functional; conditions: route oral
[3] = target: D(3) dopamine receptor (Homo sapiens, UniProt P35462); assay: biochemical
D(3) dopamine receptor, sequence (P35462 whole entry): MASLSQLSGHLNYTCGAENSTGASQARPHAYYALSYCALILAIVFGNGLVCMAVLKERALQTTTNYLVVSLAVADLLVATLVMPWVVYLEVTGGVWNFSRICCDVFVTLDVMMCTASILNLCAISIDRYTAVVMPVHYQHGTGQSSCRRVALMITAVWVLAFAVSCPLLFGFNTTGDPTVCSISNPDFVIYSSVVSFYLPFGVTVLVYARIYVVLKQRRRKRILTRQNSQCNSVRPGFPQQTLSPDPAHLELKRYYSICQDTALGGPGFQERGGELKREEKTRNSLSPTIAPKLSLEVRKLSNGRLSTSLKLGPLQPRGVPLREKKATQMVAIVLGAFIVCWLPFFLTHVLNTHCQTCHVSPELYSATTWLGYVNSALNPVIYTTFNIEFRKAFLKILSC
Description: Binding affinity at Dopamine receptor D3 in CHO cells by radioligand displacement.

[4] = target: T1, D(4) dopamine receptor (Homo sapiens, UniProt P21917); assay: biochemical
T1 sequence (P21917 whole entry): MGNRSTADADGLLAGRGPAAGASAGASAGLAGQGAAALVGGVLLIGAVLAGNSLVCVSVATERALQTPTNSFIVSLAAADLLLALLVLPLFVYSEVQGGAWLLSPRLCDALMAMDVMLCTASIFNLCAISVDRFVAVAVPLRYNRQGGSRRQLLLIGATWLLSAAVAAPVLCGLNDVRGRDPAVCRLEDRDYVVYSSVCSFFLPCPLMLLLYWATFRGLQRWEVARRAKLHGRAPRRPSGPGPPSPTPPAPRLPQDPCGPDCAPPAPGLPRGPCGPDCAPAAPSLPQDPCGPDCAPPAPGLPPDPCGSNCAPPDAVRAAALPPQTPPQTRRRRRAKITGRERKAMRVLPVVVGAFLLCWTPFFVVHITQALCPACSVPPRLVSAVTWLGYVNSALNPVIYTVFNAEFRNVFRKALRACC
Description: Binding affinity at Dopamine receptor D4 in CHO cells by radioligand displacement.

[5] = tested on: Rattus norvegicus; assay: Effect on Dopamine synthesis in rat Hippocampus(HI), measured as accumulation of DOPA(L-3,4-dihydroxyphenylalanine) at a peroral dose of 10 mg/kg; format: functional; conditions: route oral
[6] = tested on: Rattus norvegicus; assay: Effect on Dopamine synthesis in rat Striatum(ST), measured as accumulation of DOPA(L-3,4-dihydroxyphenylalanine) at a peroral dose of 10 mg/kg; format: functional; conditions: route oral
[7] = tested on: Rattus norvegicus; assay: Effect on Dopamine synthesis in rat Hippocampus(HI), measured as accumulation of DOPA(L-3,4-dihydroxyphenylalanine) at a peroral dose of 20 mg/kg; format: functional; conditions: route oral
[8] = tested on: Rattus norvegicus; assay: Effect on Dopamine synthesis in rat Striatum(ST), measured as accumulation of DOPA(L-3,4-dihydroxyphenylalanine) at a peroral dose of 20 mg/kg; format: functional; conditions: route oral
[9] = target: D(2) dopamine receptor (Homo sapiens, UniProt P14416); assay: Binding affinity at Dopamine receptor D2 in CHO cells by radioligand displacement.; format: cell-based
D(2) dopamine receptor, sequence (P14416 whole entry): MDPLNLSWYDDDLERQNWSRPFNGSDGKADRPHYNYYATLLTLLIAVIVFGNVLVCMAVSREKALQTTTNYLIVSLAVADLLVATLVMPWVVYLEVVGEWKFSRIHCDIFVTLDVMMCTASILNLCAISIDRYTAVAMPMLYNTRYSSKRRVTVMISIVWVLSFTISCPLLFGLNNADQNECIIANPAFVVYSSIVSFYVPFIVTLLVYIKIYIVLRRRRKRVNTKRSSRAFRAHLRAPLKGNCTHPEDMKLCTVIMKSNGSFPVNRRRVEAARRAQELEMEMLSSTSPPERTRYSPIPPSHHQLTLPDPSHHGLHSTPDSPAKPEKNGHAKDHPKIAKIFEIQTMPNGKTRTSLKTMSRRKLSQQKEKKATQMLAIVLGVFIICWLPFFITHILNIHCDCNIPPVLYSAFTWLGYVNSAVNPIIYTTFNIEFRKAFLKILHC

[10] = target: T2, Muscarinic acetylcholine receptor M5 (Homo sapiens, UniProt P08912); assay: Inhibition of [3H]- NMS binding against human recombinant Muscarinic acetylcholine receptor M5
T2 sequence (P08912 whole entry): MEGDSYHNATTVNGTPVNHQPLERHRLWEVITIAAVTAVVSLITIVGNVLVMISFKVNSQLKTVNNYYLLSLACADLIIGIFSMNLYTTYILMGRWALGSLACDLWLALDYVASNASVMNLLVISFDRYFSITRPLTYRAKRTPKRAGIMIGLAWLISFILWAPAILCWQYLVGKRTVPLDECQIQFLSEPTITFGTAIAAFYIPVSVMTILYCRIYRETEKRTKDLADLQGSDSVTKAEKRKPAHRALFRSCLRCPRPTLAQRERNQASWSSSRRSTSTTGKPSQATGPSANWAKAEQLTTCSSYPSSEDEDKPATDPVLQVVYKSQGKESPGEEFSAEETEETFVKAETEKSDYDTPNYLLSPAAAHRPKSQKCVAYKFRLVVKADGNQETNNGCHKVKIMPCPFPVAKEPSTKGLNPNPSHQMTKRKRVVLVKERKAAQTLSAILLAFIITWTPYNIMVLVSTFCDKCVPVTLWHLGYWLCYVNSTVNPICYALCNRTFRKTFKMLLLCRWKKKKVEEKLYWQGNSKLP

[11] = target: T3, Alpha-1A adrenergic receptor (Rattus norvegicus, UniProt P43140); assay: Inhibition of [3H]- prazosin binding against Alpha-1A adrenergic receptor from rat submaxillary gland
T3 sequence (P43140 whole entry): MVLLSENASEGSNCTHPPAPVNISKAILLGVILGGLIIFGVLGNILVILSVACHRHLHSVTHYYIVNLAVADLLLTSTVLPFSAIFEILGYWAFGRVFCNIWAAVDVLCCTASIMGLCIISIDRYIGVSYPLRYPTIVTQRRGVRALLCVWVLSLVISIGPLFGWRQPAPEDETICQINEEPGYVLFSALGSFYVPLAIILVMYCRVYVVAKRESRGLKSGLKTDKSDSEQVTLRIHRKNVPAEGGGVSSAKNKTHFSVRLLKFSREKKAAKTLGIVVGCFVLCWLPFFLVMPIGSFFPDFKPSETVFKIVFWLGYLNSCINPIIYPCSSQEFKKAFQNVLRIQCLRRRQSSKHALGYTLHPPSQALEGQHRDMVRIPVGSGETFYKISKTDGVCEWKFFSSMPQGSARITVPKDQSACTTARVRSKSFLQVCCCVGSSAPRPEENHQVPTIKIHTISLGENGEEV

[12] = target: Sigma intracellular receptor 2 (Rattus norvegicus, UniProt Q5U3Y7); assay: Inhibition of [3H]- Ifenprodil binding against rat brain Sigma opioid receptor type 2
Sigma intracellular receptor 2, sequence (Q5U3Y7 whole entry, looked up): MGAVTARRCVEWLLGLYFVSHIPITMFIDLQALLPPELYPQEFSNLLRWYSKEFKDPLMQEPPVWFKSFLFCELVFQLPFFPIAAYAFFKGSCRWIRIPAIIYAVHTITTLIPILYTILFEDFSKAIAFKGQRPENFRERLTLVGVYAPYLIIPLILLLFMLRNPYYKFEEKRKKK

[13] = target: T4, Alpha-2B adrenergic receptor (Rattus norvegicus, UniProt P19328); assay: Inhibition of [3H]- Yohimbine binding against rat kidney cortex Alpha-2B adrenergic receptor
T4 sequence (P19328 whole entry): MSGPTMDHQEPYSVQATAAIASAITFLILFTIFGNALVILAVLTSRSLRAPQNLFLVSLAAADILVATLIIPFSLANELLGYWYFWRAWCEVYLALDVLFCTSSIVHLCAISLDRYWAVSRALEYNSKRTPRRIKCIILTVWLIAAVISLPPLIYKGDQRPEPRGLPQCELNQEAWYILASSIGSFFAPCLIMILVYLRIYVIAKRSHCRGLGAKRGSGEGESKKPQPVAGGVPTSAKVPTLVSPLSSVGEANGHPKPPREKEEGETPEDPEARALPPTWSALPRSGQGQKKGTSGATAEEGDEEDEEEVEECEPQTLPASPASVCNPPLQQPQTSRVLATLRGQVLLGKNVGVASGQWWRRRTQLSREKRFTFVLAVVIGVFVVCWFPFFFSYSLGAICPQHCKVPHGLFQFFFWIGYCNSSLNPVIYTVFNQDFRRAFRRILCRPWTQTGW

[14] = target: Serotonin 2 (5-HT2) receptor (Rattus norvegicus, UniProt P30994+P08909+P14842); assay: Inhibition of [3H]- Ketanserin binding against rat brain 5-hydroxytryptamine 2 receptor
[15] = target: T5, 5-hydroxytryptamine receptor 1A (Homo sapiens, UniProt P08908); assay: Inhibition of [3H]- […] binding against human recombinant 5-hydroxytryptamine 1A receptor
T5 sequence (P08908 whole entry): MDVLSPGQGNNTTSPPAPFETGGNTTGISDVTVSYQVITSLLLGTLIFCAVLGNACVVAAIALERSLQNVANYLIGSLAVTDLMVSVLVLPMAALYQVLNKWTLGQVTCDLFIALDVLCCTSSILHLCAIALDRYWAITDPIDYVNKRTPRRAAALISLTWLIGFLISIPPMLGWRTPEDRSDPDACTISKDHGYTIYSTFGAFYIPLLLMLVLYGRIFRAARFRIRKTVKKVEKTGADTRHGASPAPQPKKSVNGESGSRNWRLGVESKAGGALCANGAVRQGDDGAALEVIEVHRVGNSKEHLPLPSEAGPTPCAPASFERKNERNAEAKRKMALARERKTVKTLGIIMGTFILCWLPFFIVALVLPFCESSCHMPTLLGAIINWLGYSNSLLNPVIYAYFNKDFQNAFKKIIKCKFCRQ

[16] = target: T6, Alpha-1B adrenergic receptor (Rattus norvegicus, UniProt P15823); assay: Inhibition of [3H]- prazosin binding against Alpha-1B adrenergic receptor from rat liver
T6 sequence (P15823 whole entry): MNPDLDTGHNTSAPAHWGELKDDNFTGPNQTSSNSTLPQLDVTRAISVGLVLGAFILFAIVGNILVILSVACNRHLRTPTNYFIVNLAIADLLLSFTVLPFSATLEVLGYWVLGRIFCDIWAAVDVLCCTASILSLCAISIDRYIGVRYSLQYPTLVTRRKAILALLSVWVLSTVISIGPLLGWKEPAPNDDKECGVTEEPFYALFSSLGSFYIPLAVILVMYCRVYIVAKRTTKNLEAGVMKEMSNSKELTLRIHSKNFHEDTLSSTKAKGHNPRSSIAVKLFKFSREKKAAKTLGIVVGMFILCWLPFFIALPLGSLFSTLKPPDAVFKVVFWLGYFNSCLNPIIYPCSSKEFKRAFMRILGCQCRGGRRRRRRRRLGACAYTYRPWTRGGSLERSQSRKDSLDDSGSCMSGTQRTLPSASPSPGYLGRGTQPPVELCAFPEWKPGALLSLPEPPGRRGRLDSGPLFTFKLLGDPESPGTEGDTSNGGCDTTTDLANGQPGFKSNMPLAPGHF

[17] = target: T7, Alpha-2A adrenergic receptor (Homo sapiens, UniProt P08913); assay: Inhibition of [3H]- MK-912 binding against human recombinant Alpha-2A adrenergic receptor
T7 sequence (P08913 whole entry): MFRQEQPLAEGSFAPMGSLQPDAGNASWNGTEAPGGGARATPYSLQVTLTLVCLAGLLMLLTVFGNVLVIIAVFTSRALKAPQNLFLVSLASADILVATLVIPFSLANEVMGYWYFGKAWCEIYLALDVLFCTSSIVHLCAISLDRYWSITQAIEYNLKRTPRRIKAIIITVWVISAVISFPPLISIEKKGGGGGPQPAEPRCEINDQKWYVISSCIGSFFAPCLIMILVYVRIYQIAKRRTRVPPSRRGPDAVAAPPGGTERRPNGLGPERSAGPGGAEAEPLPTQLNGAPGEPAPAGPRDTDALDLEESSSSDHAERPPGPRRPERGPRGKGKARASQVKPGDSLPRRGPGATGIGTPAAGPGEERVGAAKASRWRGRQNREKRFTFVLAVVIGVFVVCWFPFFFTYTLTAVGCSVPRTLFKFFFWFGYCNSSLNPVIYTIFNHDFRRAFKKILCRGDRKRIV

Row | Compound | Ki [3] | Ki [4] | Change [5] | Change [6] | further results
1 | COc1ccc(C2CCN(Cc3ccc4c(c3)NC(=O)CO4)CC2)cc1 | > 3.03 µM | – | – | – | Change [1]: 93%; Change [2]: 96%
2 | Cc1ccc(C2CCN(Cc3ccc4c(c3)OCC(=O)N4)CC2)cc1C | 0.859 µM | 0.0026 µM | 103% | 99% | –
3 | O=C1COc2cc(CN3CCN(c4ccccc4)CC3)ccc2N1 | 0.0104 µM | 0.0061 µM | – | – | –
4 | COc1ccc(C2CCN(Cc3ccc4c(c3)OCC(=O)N4)CC2)cc1 | 0.428 µM | 0.0067 µM | – | – | Change [7]: 132%; Change [8]: 126%
5 | Cc1ccc(C2CCN(Cc3ccc4c(c3)NC(=O)CO4)CC2)cc1C | > 3.03 µM | 0.0018 µM | – | – | Change in DA synthesis [5]: 128%; Change in DA synthesis [6]: 104%
6 | Cc1ccc(C2CCN(Cc3ccc4c(c3)OCC(=O)N4)CC2)cc1 | 0.232 µM | 0.0026 µM | – | – | –
7 | Cc1ccc(N2CCN(Cc3ccc4c(c3)NC(=O)CO4)CC2)cc1 | 2.49 µM | 0.0043 µM | – | – | Change [7]: 89%; Change [8]: 111%
8 | O=C1COc2cc(CN3CCN(c4ccc(Cl)cc4)CC3)ccc2N1 | 0.679 µM | 0.0043 µM | 146% | 110% | IC50 [10]: 1.34 µM; Ki [10]: 0.964 µM; Ki [9]: 0.413 µM; IC50 [11]: 0.5 µM; Ki [11]: 0.203 µM; IC50 [12]: 0.375 µM; Ki [12]: 0.231 µM; IC50 [13]: 0.63 µM; Ki [13]: 0.368 µM; IC50 [14]: 2.7 µM; Ki [14]: 1.678 µM; IC50 [15]: 1.4 µM; Ki [15]: 0.792 µM; IC50 [16]: 1.42 µM; Ki [16]: 0.787 µM; IC50 [17]: 1.1 µM; Ki [17]: 0.411 µM

The next lines start with results.

Row | Ki [3] | Ki [4] | Compound | Change [5] | Change [6] | further results
9 | > 3.03 µM | 0.0624 µM | O=C1COc2ccc(CN3CCN(c4ccc(Cl)cc4)CC3)cc2N1 | – | – | –
10 | 0.839 µM | 0.0183 µM | O=C1COc2ccc(CN3CCN(c4ccccc4)CC3)cc2N1 | – | – | –
11 | 1.79 µM | 0.005 µM | COc1ccc(N2CCN(Cc3ccc4c(c3)OCC(=O)N4)CC2)cc1 | 122% | 104% | Ki [9]: > 5.88 µM
12 | 0.208 µM | – | Cc1ccc(N2CCN(Cc3ccc4c(c3)OCC(=O)N4)CC2)cc1 | 133% | 140% | –
13 | 0.864 µM | – | Cc1ccc(N2CCN(Cc3ccc4c(c3)NC(=O)CO4)CC2)cc1C | 122% | 126% | –
14 | 0.0785 µM | – | Cc1ccc(N2CCN(Cc3ccc4c(c3)OCC(=O)N4)CC2)cc1C | – | – | –
15 | > 3.03 µM | 0.0028 µM | Cc1ccc(C2CCN(Cc3ccc4c(c3)NC(=O)CO4)CC2)cc1 | – | – | –
16 | > 3.03 µM | – | COc1ccc(N2CCN(Cc3ccc4c(c3)NC(=O)CO4)CC2)cc1 | – | – | Change [1]: 91%; Change [2]: 110%
